Tests used:
p300 catalytic domain = target: T1, p300 catalytic domain (Homo sapiens, UniProt Q09472); assay: fluorescent HAT assay kit (Active Motif), 96-well; type: biochemical
T1 construct: the catalytic domain of p300(965-1810); purchased Active Motif, Carlsbad, Calif
T1 sequence (Q09472 965-1810): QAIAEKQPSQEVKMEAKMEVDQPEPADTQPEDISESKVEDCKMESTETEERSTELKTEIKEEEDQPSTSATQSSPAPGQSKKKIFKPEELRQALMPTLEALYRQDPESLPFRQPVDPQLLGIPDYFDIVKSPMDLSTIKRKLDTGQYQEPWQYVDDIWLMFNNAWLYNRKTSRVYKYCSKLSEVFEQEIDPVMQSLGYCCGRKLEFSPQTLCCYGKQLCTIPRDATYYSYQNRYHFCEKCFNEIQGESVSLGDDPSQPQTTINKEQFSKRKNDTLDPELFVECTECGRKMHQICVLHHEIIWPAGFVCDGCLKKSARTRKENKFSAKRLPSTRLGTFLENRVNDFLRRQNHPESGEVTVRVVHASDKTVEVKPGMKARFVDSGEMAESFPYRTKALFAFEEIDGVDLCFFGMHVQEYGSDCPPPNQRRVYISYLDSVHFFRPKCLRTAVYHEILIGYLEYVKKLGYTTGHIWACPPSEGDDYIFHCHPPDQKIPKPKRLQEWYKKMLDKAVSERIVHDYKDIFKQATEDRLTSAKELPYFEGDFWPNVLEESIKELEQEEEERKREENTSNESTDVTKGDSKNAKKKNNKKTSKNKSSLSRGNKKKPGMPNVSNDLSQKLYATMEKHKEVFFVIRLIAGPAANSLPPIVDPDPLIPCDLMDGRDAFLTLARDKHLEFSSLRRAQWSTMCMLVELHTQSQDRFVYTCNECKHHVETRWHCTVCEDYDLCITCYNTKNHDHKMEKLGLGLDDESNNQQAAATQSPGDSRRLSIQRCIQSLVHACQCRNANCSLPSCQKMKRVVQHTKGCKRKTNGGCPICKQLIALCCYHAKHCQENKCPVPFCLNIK
Method: (A) Structures of compound 1a (spermidine CoA), and the acetylated side chain of a lysine residue of a polypeptide chain. (B) Inhibition of p300 acetylating activity as a function of 1a concentration. The catalytic domain of recombinant p300 (1284-1660) was assayed under steady state conditions using an N-terminal acetylated histone H4 peptide substrate, Ac-H4(1-19)-NH2. Closed circles represent experimental data points; plain line represents theoretical profile based on data reduction software (Prism) using a one site inhibition model. (C) In vitro assay of p300 activity using a 96-well assay kit (ActivMotif) and an H3 peptide substrate (5-23), according to manufacturer's instructions. Bars represent average of duplicates. […]
Reactions were set up in duplicate following the protocol supplied by the kit. […] Activity is measured in fluorescence units. […]
Assays were performed using the fluorescent HAT assay kit (Active Motif, Carlsbad, Calif.), an H3 peptide as substrate (residues 5-23), the p300 catalytic domain as enzyme, and 50 μM inhibitor in duplicate, according to the manufacturer's instructions. […] The reaction product, CoASH, was detected spectrophotometrically by reaction with 5,5′-dithiobis-2-nitrobenzoic acid (DTNB). Assays were carried out at 30° C. for 30 minutes, conditions which had previously been determined in kinetic assays to sufficient to achieve steady state.

H358 lung cancer cells = assay: 96-well MTS cell viability assay; type: cell-based
Method: Control cells were left untreated. […] Control cells were left untreated.
Cells were given fresh inhibitor on the first, second, and third days of treatment and viability was measured on the 4th day (i.e. 3 days post start of treatment).
(A) Structure of compound 2a. […] Averages of duplicate samples with standard deviations are shown.
(A) Structure of Spd-3a. (B) Western analysis of histone H3K9-acetylation and total histone H3, measured in control, untreated H358 lung cancer cells “C’ or in H358 cells incubated 12 hours in the presence of 50 μM Spd-2a or Spd-3a. Each lane represents 60 μg cellular protein. (C) [3H]-thymidine incorporation (counts per minute) into DNA of H358 cells during a 6 hour pulse beginning at 42 hours post-start of treatment. Treatments were as follows (bars 1-6 left to right): (1) control: no treatment; (2) CPT alone: 5 nM 18 hours; (3) 3a alone: 50 μM; (4-6) 3a+CPT: CPT (5 nm, 18 hours)+3a at indicated dose. After 18 hours, CPT was removed and medium was replaced with fresh medium containing Spd-3a at the indicated dose. Each bar represents the average of triplicates. (D) 3-day 96-well viability assay of H358 cells grown in the presence of increasing amounts of Spd-2a or Spd-3a, with or without CPT (5 nM 18 hours). […] Each data point represents the average of three wells.
(§1) Cells were plated in 96-well plates at 2000 cells per well and treated with the indicated doses of spd-3a. Cell viability was measured by the MTS assay 3 days later.
DLD-1 cells or H358 cells were plated in 96-well plates at 2000 cells per well and treated with the indicated doses of (A) spm-3 or (B) spm-2. (C) Cell viability was measured by the MTS assay 3 days later. Similar experiment using GT41 fibroblasts with spm2 or spm 3. Each assay point represents an average of duplicates.
Control cells received neither 1a nor camptothecin.
After overnight attachment, triplicate wells were treated with increasing concentrations of inhibitor 1a or 1b. Control wells were left untreated. One day later, and again 2 days later, the medium in the wells was removed and replaced with fresh medium containing 1a or 1b.

GT41F skin fibroblasts = assay: 96-well MTS viability assay; type: cell-based, human; settings: 3 days; for sensitivity of normal fibroblasts compared with cancer cell lines: single agent
[1] = system: DU145 prostate cancer cells; type: cell-based; settings: camptothecin 5 nM; 2a 10 μM
Method: as §1

CC(C)(COP(=O)(O)OP(=O)(O)OC[C@H]1O[C@@H](n2cnc3c(N)ncnc32)[C@H](O)[C@@H]1OP(=O)(O)O)[C@@H](O)C(=O)NCCC(=O)NCCSCC(=O)NCCCNCCCCN [1a, spermidine[N1]-CoA]
suppression of p300HAT-mediated incorporation of acetyl groups relative to control enzyme (p300 catalytic domain; 50 μM inhibitor, H3 peptide substrate, FIG. 1C): 88%
2-day cell viability, % of untreated cell viability (H358 lung cancer cells; 5 nM camptothecin + increasing concentrations of 1a): less than 10%

CC(=O)NCCSCC(=O)NCCCNCCCCN [3a]
suppression of 3-day cell viability in combination with camptothecin (H358 lung cancer cells; 3a + CPT 5 nM 18 hours): effective
sensitivity of normal fibroblasts compared with cancer cell lines (GT41F skin fibroblasts): less sensitive
cell viability retained (GT41F skin fibroblasts; spd-3a 1 μM): ~60%

CC[C@@]1(O)C(=O)OCc2c1cc1n(c2=O)Cc2cc3ccccc3nc2-1 [camptothecin]
2-day cumulative cell viability relative to untreated, single agent (H358 lung cancer cells; 1a increasing concentrations, camptothecin 5 nM 18 hour): no effect
effect on cell viability, single agent [1]: minimal effects

CC(=O)NCCSCC(=O)NCCCNCCCCNCCCN [spm-3]
p300 HAT inhibition in vitro (p300 catalytic domain; kit assay, 2a at 50 μM): HAT inhibitors
3-day cell viability, single agent (H358 lung cancer cells; single agent): effective as single agents
sensitivity of normal fibroblasts compared with cancer cell lines (GT41F skin fibroblasts): sensitivity similar to that of H358 lung cancer cells
